These are literature values, as cited in PMC6017028 (Molecules : A Journal of Synthetic Chemistry and Natural …, 2018).

Usually pKa stands for the pH at which an ionisable group is half protonated.

Details of the data set: method as in PMID 17531180. Particulars: weak organic acid; cited from earlier work.

SMILES strings stand for the structures.

For the compound `O=c1[nH]c(=O)c2[nH]c(=O)[nH]c2[nH]1` [Uric acid], the pKa was 5.75.
